Measured values taken from PMC4949516 (Chemmedchem, 2016).

What was measured:
PKA catalytic subunit = target: T1, PKA catalytic subunit (Bos taurus, UniProt P00517); test: fluorescence polarisation competition with compound […]; type: binding
T1 construct: gene PRKACA; native catalytic subunit purified from bovine heart PKA (P5511) by column chromatography

[1] = target: T2, PKA (cAMP-dependent protein kinase), semi-pure tetramer (Bos taurus, UniProt P00517); test: fluorescence polarisation saturation binding, one-site fit; settings: read-out: binding constant
T2 construct: gene PRKACA; native, semi-pure from bovine heart; whole tetramer of two catalytic and two regulatory subunits; with cAMP-dependent protein kinase type II-alpha regulatory subunit

Row | SMILES | IC50 (PKA catalytic subunit) [nM] | Kd [1] [nM]
1 | CC1CNCCN1S(=O)(=O)c1cccc2cnccc12 (centres unmarked) [H‐7] | 3900 | –
2 | CO[C@@H]1[C@H](N(C)CC(=O)NCCNC(=O)CCC(=O)NCCOCCOCCNC(=S)Nc2ccc(-c3c4ccc(=O)cc-4oc4cc(O)ccc34)c(C(=O)O)c2)C[C@H]2O[C@]1(C)n1c3ccccc3c3c4c(c5c6ccccc6n2c5c31)C(=O)NC4 [compound 8, 2‐(6‐Hydroxy‐3‐oxo‐3H‐xanthen‐9‐yl)‐5‐(3‐(2‐((5R,7R,8R,9S)‐8‐methoxy‐9‐methyl‐16‐oxo‐6,7,8,9,15,16‐hexahydro‐5H,14H‐17‐oxa‐4b,9a,15‐triaza‐5,9‐methanodibenzo[b,h]cyclonona[jkl]‐cyclopenta[e]‐as‐indacen‐7‐yl)‐4,9,12‐trioxo‐16,19‐dioxa‐2,5,8,13‐tetraazahenicosan‐21‐yl)thioureido)benzoic acid] | – | 44
